Assay results as given in article PMC2559818 (BMC Clinical Pharmacology, 2008).
Where “and” joins values, the source holds several entries; their conditions need not be identical. Equal entries are not always repeated.

Columns and labels:
[1] = Long-term Pt levels in plasma of treated patients (ICP-MS); format: in vivo; conditions: patients treated 8 to 75 months before
Protocol: Whole blood samples for Pt analysis were collected in 10 mL EDTA containing tubes (Becton Dickinson Vacutainer Systems, Plymouth, UK). EDTA was preferred above heparin because the fraction peripheral blood mononuclear cells (PBMCs) could be isolated easier from EDTA plasma. […] Plasma was obtained by centrifuging the whole blood samples for 15 min (1,000 g, 4°C). The fraction containing PBMCs was isolated from the whole blood sample using the method described by Pluim et al [13]. PUF was obtained by centrifuging the plasma fraction through 3 and 30 kDa cut-off ultrafiltrate filter (Centriplus Millipore Corporation, Bedford, MA, USA) for 30 min (1,000 g, 20°C). […] All samples were stored at -20°C until analysis.
Pt analyses were performed using an ICP-MS and a validated method described previously [15]. Pt levels were assessed in plasma, pUF, and bound to DNA in PBMCs. DNA was isolated from PBMCs using a method described by Pluim et al [13]. Before ICP-MS analysis, the DNA was hydrolysed in 1% (v/v) HNO3 solution at 70°C. The limit of quantification (LLOQ) of the method was 20 ng/L for plasma, 7.5 ng/L for pUF, and the absolute sensitivity for Pt bound to DNA was 0.75 pg Pt (7.5 fg Pt per μg DNA when using 100 μg DNA). The LLOQs were determined on the basis of five times the noise in blank matrix solutions.

[2] = Long-term Pt levels in plasma ultrafiltrate (pUF) of treated patients (ICP-MS); format: in vivo, human; conditions: pUF prepared after sampling
Protocol: Whole blood samples for Pt analysis were collected in 10 mL EDTA containing tubes (Becton Dickinson Vacutainer Systems, Plymouth, UK). […] Plasma was obtained by centrifuging the whole blood samples for 15 min (1,000 g, 4°C). […] PUF was obtained by centrifuging the plasma fraction through 3 and 30 kDa cut-off ultrafiltrate filter (Centriplus Millipore Corporation, Bedford, MA, USA) for 30 min (1,000 g, 20°C). […] All samples were stored at -20°C until analysis.
Pt analyses were performed using an ICP-MS and a validated method described previously [15]. Pt levels were assessed in plasma, pUF, and bound to DNA in PBMCs.

calf thymus DNA = assay: Assessment of DNA binding activity of Pt in pUF (ex vivo incubation); conditions: for DNA binding of Pt in patient pUF samples: pUF of two treated patients per drug; for DNA binding of Pt in patient pUF samples / Added Pt bound to DNA: five-day incubation with calf thymus DNA; for Added Pt bound to DNA: parent compound added to pUF of healthy volunteers; for Total binding capacity of equivalent concentrations of parent compound recovered (average): patient pUF, more than 8 months after end of treatment
Protocol: The latter was done to assess the binding capacity of the parent compounds at concentrations in the same range as the patients samples. After a five-day incubation to achieve a maximal Pt-DNA binding, the DNA was precipitated, washed and dissolved in water as described by Brouwers et al. After hydrolysis, the Pt-DNA binding was assessed.

plasma proteins [3] = assay: Ex vivo assessment of protein binding capacity of Pt in pUF (plasma storage); format: in vitro ADME, human
Protocol: Pt concentrations analysed in pUF prepared after storage were compared to Pt concentrations analysed in pUF which was prepared immediately after blood sampling. Additionally, plasma samples were reanalyzed to assess whether or not Pt concentrations in plasma were reduced during storage due to adsorption to the tubes.

plasma proteins [4] = assay: Ex vivo activity of STS (release of Pt from plasma proteins); format: in vitro ADME, human; conditions: for Percentage of plasma Pt recovered in pUF after STS incubation: 750 μL plasma + 25 μL 250 g/L STS
Protocol: Therefore, 750 μL of plasma were incubated with 25 μL of a 250 g/L STS solution. As control, 750 μL of plasma were incubated with 25 μL of water. After incubation, pUF was prepared and Pt concentrations of the STS incubated samples and control samples were compared. Protein concentrations in the ultrafiltrates were analysed using a 2-D Quant Kit (GE healthcare Bio-Sciences AB, Uppsala, Sweden).

[5] = Effects of determinants on in vivo plasma Pt levels (NONMEM modelling)
Protocol: Additionally, serum creatinine was assessed at the time of study.
Possible relationships between determinants and Pt levels were evaluated using non-linear mixed effects modeling using NONMEM software (Version V1) (GloboMax LLC, Ellicott city, MD, USA). The first order conditional estimation method was used throughout. It was assumed that, due to the long follow-up, the treatment period was negligible compared to the follow-up time. The significance of established relationships was assessed using the likelihood ratio test.

[6] = Renal function (MDRD GFR) at chemotherapy and at follow-up; format: in vivo, human
Protocol: Differences between Pt levels of cisplatin and oxaliplatin treated patients, control cancer patients, and healthy controls were evaluated using the Mann-Whitney U test. The Wilcoxon signed rank test was used to test the difference between the renal function at the time of chemotherapy and at follow-up. Correlations between plasma and pUF level of Pt treated patients were evaluated by the Pearson correlation coefficient. SPSS was used to perform these tests.
Pt levels were proportional to the cumulative dose. […] An association between GSTT1,GSTM1, and GSTP1 genotypes and Pt levels could not be established. The effect of the renal function on Pt levels was evaluated using the glomerular filtration rate (GFR) which was calculated with the 'Modification of Diet in Renal Disease (MDRD)'-formula [21]. […] Figure 3 and 4 show the MDRD GFR for patients at the start of their chemotherapy treatment and at follow-up. […] Long-term plasma Pt concentrations were lower when the GFR at the time of chemotherapy was higher.

[7] = plasma stored at -30°C for 144-278 days
[8] = individual patient plasma samples
[9] = two-compartment model, per compound

| Compound | Plasma Pt levels relative to mean level of unexposed controls [1] | Percentage of plasma Pt recovered in pUF (average) [2] | DNA binding of Pt in patient pUF samples (calf thymus DNA) | Added Pt bound to DNA (calf thymus DNA) | Total binding capacity of equivalent concentrations of parent compound recovered (average) (calf thymus DNA) | Percentage of plasma Pt recovered in pUF after storage (plasma proteins [3]; individual patient samples, 144-278 days of storage at -30°C) | Percentage of plasma Pt recovered in pUF before storage (plasma proteins [3]; individual patient samples, pUF prepared immediately after blood sampling) | Decrease in Pt concentrations in pUF after storage (average) (plasma proteins [3]; [7]) | Plasma Pt concentrations over storage time (plasma proteins [3]; [7]) | Factor increase of Pt in pUF after STS incubation (plasma proteins [4]; [8]) | Percentage of plasma Pt recovered in pUF after STS incubation (plasma proteins [4]; [8]) | Percentage of plasma Pt recovered in pUF (plasma proteins [4]; individual patient plasma samples, control incubation with water) | Increase in Pt pUF concentrations in samples prepared from STS treated plasma (plasma proteins [4]; over four samples per drug) | First elimination half-life (t1/2) of plasma Pt [5, 9] | Second elimination half-life (t1/2) of plasma Pt [5, 9] | GFR at the time of the current study (follow-up) ([6]; MDRD formula) | Median GFR before start of the Pt chemotherapy ([6]; MDRD formula) | Reduction in long-term plasma Pt levels ([5]; STS co-administration with intra-arterial cisplatin, p < 0.001) | GFR at the time of the current study (follow-up) ([6]; in vivo) | Median GFR before start of the Pt chemotherapy ([6]; in vivo) |
| --- | --- | --- | --- | --- | --- | --- | --- | --- | --- | --- | --- | --- | --- | --- | --- | --- | --- | --- | --- | --- |
| O=C1[O][Pt]2([NH][C@@H]3CCCC[C@H]3[NH]2)[O]C1=O [Oxaliplatin, oxaliplatin] | > 30 fold | 24.2% | 0.78% and 1.1% | 21% | 4.3% | 25.2 and 21.2 and 16 and 15.8 | 28.2 and 27.8 and 25.9 and 22.9 | 26% | remained constant over time | 1.5-fold and 1.4-fold and 2.0-fold | 40.4 and 46.2 and 39.5 and 38.7 | 27.2 and 32.2 and 20 and 26.5 | 1.6 fold | 1.37 months | 535 months | 61 mL/min/1.73 m^2 | 65 mL/min/1.73 m^2 | – | – | – |
| O=S([O-])([O-])=S.[Na+].[Na+] [STS, sodium thiosulfate] | – | – | – | – | – | – | – | – | – | – | – | – | – | – | – | – | – | 71% | – | – |
| N.N.[Cl][Pt][Cl] [Cisplatin, cisplatin] | – | – | 1.8% and 2.4% | 21% | 10% | – | – | – | – | 1.4-fold and 2.7-fold and 2.3-fold and 2.9-fold | 17.5 and 34.9 and 30.7 and 36.6 | – | – | – | – | – | – | – | 55 mL/min/1.73 m^2 | 78 mL/min/1.73 m^2 |
